Literature values in patent US20140256765A1, “TRANSMUCOSAL DRUG DELIVERY SYSTEM” (priority 2013, published 2014).

Tests used:
[1] = at a pH of 6.8
[2] = in vivo

CN1CCCC1c1cccnc1 (centres unmarked) [nicotine]
nicotine in the free base form [1]: about 10% | time to peak of plasma nicotine levels [2]: about 10 minutes
